Source: PMC10534582, “A Pharmacokinetic Study of Sixteen Major Bioactive Components of Jinshui-Huanxian Granules in Pulmonary Fibrosis Model and Control Rats Using Orbitrap Fusion Mass Spectrometry” (Molecules, 2023)
Like-named read-outs stand apart in the source and are kept apart here.

Key:
[1] = Pharmacokinetics of JHG components in control rats after intragastric administration of JHGs (plasma, Orbitrap Fusion MS); format: in vivo, Sprague Dawley (SD) rats; conditions: for AUC(0-inf) / AUC(0-t) / half-life / MRT last / MRT inf / Tmax / Cmax: male, rat, plasma, po; for MRT last: read-out: MRT(0-t); for MRT inf: read-out: MRT(0-∞); for Cmax: intragastric JHGs
Procedure: (§1) Healthy male Sprague Dawley (SD) rats of SPF grade (240 ± 20 g) were purchased from Sipeifu (Beijing, China) Biotechnology Co., Ltd. (Beijing, China), Certificate of Conformity No.: SCYK (Beijing, China) 2019-0015, Animal Quality Certificate No.: 110324220102348616. They were housed in the Animal Center of Henan University of Traditional Chinese Medicine, which passed the ethical audit, ethics number: DWLL202208003, breeding Co. 24 °C, relative humidity 50 ± 2%. The animals fasted for 12 h before the experiment and drank water freely. All feeding and experimental studies on experimental animals were in accordance with the regulations on the Management of Experimental Animals in Henan Province.
(§2) Twenty-four healthy male SD rats or PF model rats, weighing 240 ± 20 g, fasted for 12 h before the experiment and drank water freely. Both kinds of rats were randomly divided into four groups. Blank group: equal dose of water by intragastric, low dose; administration group: rats were given the equivalent human dose of JHGs by intragastric, i.e., 10.8 g of raw drug/kg/d (5.70 g/kg/d); medium-dose administration group: 2 times the human equivalent dose of JHGs by intragastric, i.e., 21.6 g of raw drug/kg/d (11.41 g/kg/d); high-dose administration group: 4 times the human equivalent dose of JHG, i.e., 43.2 g of raw drug/kg/d (22.81 g/kg/d). Blood was collected from the tail vein before and 0.083, 0.25, 0.5, 0.75, 1, 1.5, 2, 3, 4, 6, 8, 12, 18, and 24 h after dosing, respectively. A total of 0.5 mL was placed in a heparin sodium centrifuge tube. Whole blood was left for 30 min and then centrifuged in a low-temperature freezing centrifuge (4 °C, 3000 r/min) for 15 min. The upper layer of plasma was collected and stored in a refrigerator at −80 °C.
(§3) We added 50 μL of internal standard solution and 800 μL of methanol, shook for 15 min, then centrifuged at 12,000 r/min for 10 min, took the supernatant, dried in a centrifuge concentrator, added 50 μL of the initial mobile phase to the residue, dissolved, centrifuged, then separated the upper layer of the solution used as the test solution. A total of 5 μL test solution was taken into the sample for analysis. For each compound with a certain dosage, the same procedure is repeated six times in parallel. The concentration in plasma was calculated by the internal standard method.
(§4) Accucore C18 (100 mm × 2.1 mm, 2.6 μm) column at 25 °C, the mobile phase was methanol (A)-0.1% formic acid aqueous solution (B). The gradient elution program was 0–4 min (65% B-40% B), 4–5 min (40% B-40% B), 5–6 min (40% B-28% B), and 6–7 min (28% B-19% B), 7–7.5 min (19% B-10% B), 7.5–11 min (10% B-0% B), the flow rate was 0.2 mL/min, and the injection volume was 5 μL.
The ion source was an electrospray ionization source (ESI). Nitrogen acted as a carrier gas. The sheath gas pressure was 35 Arb. The auxiliary gas pressure was 7 Arb. The spray voltage was 3.50 kv(+), 2.50 kv(-). The ion transport tube temperature was regulated at 300 °C. Gasification temperature was 275 °C. The resolution was 50,000. The scanning mode was set as SIM mode. The optimized parameters obtained are in Table 5.
Under the established Orbitrap Fusion MS method, the pharmacokinetics of JHG in rats were studied to investigate the dynamic changes of the active components in rats. The pharmacokinetic parameters of each component in each dosing group were calculated by […] model analysis using Kinetica 5.1 (Innaphase, Waltham, MA, USA) pharmacokinetic analysis software. The pharmacotemporal curves were plotted by the plotting software. SPSS 19.0 (IBM, Armonk, NY, USA) was used to analyze all the parameters. Independent sample tests were performed after natural logarithmic transformation for AUC0–t, Cmax. The nonparametric Mann–Whitney test was applied for Tmax, t½, and MRT0–t. p < 0.05 was considered statistically significant.

[2] = Pharmacokinetics of JHG components in pulmonary fibrosis (PF) model rats after intragastric administration of JHGs (plasma, Orbitrap Fusion MS); format: in vivo, Sprague Dawley (SD) rats; conditions: for pharmacokinetic process (versus dosage) / Tmax: PF model rats; for pharmacokinetic process (versus dosage): low, medium, high doses of JHGs; for Tmax: male, Sprague-Dawley, rat, plasma, po, after administration of JHGs, read-out: Tmax of all dosages
Procedure: as §1
The PF model in rats was replicated by reference to the conclusion tracheal intubation method in the literature. After the rats were anesthetized, bleomycin (BLM) (5 mg/kg) was used as an induction agent and followed the tracheal intubation method. BLM solution was aspirated with a 1 mL syringe and injected into the indwelling syringe. A total of 0.3 mL of air was rapidly pushed into the syringe, the rats were immediately stroked upright so that the BLM solution was evenly distributed in both lungs. BLM was given on day 0 for modeling, then gavage was taken after day 28, with fasting without water for 12 h before sampling. The histopathological examination was performed to verify the construction of the PF model. The rats were anesthetized by the abdominal cavity, then the lung tissues were violently shocked by opening the chest, and the right lower lobe of the lung was taken and fixed in 4% formaldehyde solution, then dehydrated by sucrose gradient, paraffin-embedded, and sectioned. H&E and Masson staining were performed to observe the degree of alveolitis of lung tissue and the degree of pulmonary fibrosis, respectively. The inflammation and fibrosis of lung tissues was observed under the light microscope.
as §2, §3
as §4, with “μL. […]” for “μL.”

[3] = because of poor gastrointestinal absorption; cited from earlier work
[4] = Sprague Dawley, 5.7 g/kg/day, JHGs low dose 5.70 g/kg/d
[5] = Sprague Dawley, 5.7 g/kg/day, JHGs low dose 5.70 g/kg/d, read-out: Tmax
[6] = Sprague Dawley, 5.7 g/kg/day, low dose 5.70 g/kg/d, n=6 (1st of 3 stacked values)
[7] = Sprague Dawley, 11.41 g/kg/day, JHGs medium dose 11.41 g/kg/d
[8] = Sprague Dawley, 11.41 g/kg/day, JHGs medium dose 11.41 g/kg/d, read-out: Tmax
[9] = Sprague Dawley, 11.41 g/kg/day, medium dose 11.41 g/kg/d, n=6 (2nd of 3 stacked values)
[10] = Sprague Dawley, 22.81 g/kg/day, JHGs high dose 22.81 g/kg/d
[11] = Sprague Dawley, 22.81 g/kg/day, JHGs high dose 22.81 g/kg/d, read-out: Tmax
[12] = Sprague Dawley, 22.81 g/kg/day, high dose 22.81 g/kg/d, n=6 (3rd of 3 stacked values)

| pharmacokinetic process (versus dosage) [2] | SMILES | Tmax, PF model group compared with the control group ([2]; PF model vs control rats) | Tmax [2] [h] | Clearances ([1]; JHGs high dose 22.81 g/kg/d) [L/h/kg] | Vss ([1]; JHGs high dose 22.81 g/kg/d) [L] | Clearances ([1]; JHGs low dose 5.70 g/kg/d) [L/h/kg] | Vss ([1]; JHGs low dose 5.70 g/kg/d) [L] | Clearances ([1]; JHGs medium dose 11.41 g/kg/d) [L/h/kg] | Vss ([1]; JHGs medium dose 11.41 g/kg/d) [L] | AUC(0-inf) [1, 4] [µg·h/mL] | AUC(0-t) [1, 4] [µg·h/mL] | half-life [1, 4] [h] | MRT last [1, 4] [h] | MRT inf [1, 4] [h] | Tmax [1, 5] [h] | Cmax [1, 6] [µg/mL] | AUC(0-inf) [1, 7] [µg·h/mL] | AUC(0-t) [1, 7] [µg·h/mL] | half-life [1, 7] [h] | MRT last [1, 7] [h] | further results |
| --- | --- | --- | --- | --- | --- | --- | --- | --- | --- | --- | --- | --- | --- | --- | --- | --- | --- | --- | --- | --- | --- |
| linear pharmacokinetic process | CC(C)=CCC[C@](C)(O[C@@H]1O[C@H](CO[C@@H]2OC[C@H](O)[C@H](O)[C@H]2O)[C@@H](O)[C@H](O)[C@H]1O)[C@H]1CC[C@]2(C)[C@@H]1[C@H](O)C[C@@H]1[C@@]3(C)CC[C@H](O[C@@H]4O[C@H](CO)[C@@H](O)[C@H](O)[C@H]4O[C@@H]4O[C@H](CO)[C@@H](O)[C@H](O)[C@H]4O)C(C)(C)[C@@H]3CC[C@]12C [Ginsenoside Rb2] | slightly increased | ≤ 2 |  |  |  |  |  |  |  |  |  |  |  |  |  |  |  |  |  | pharmacokinetic process (Cmax and AUCs versus dosage) ([1]; low, medium, high doses of JHGs): linear pharmacokinetic process; reduction of Cmax in PF model group relative to control ([2]; PF model vs control rats): about 1/3; Cmax, PF model group compared with the control group ([2]; PF model vs control rats, medium dose selected for comparison): significantly decreased; AUCs, PF model group compared with the control group ([2]; PF model vs control rats, p < 0.05): significantly decreased; bioavailability, oral administration [3]: low |
|  | CC1CCC2N(C1)CC1C3CC4C(CC(=O)C5CC(O)CCC54C)C3CCC1C2(C)O (stereo not drawn) [Peiminine] | decreased significantly |  | 6.72 ± 1.81 | 67.52 ± 15.96 | 2.77 ± 0.84 | 28.03 ± 8.27 | 3.66 ± 1.12 | 40.68 ± 9.67 | 0.0319 ± 0.00955 | 0.0291 ± 0.00848 | 6.06 ± 0.22 | 8.01 ± 0.09 | 10.2 ± 0.32 | 4.67 ± 1.15 | 0.00291 ± 0.0009 | 0.0439 ± 0.0164 | 0.0386 ± 0.0132 | 7.97 ± 0.84 | 8.23 ± 0.25 | MRT inf [1, 7]: 11.3 ± 1.03 h; Tmax [1, 8]: 4 h; Cmax [1, 9]: 0.00422 ± 0.00127 µg/mL; AUC(0-inf) [1, 10]: 0.0461 ± 0.0137 µg·h/mL; AUC(0-t) [1, 10]: 0.042 ± 0.0117 µg·h/mL; half-life [1, 10]: 6.82 ± 0.57 h; MRT last [1, 10]: 7.84 ± 0.1 h; MRT inf [1, 10]: 10.1 ± 0.42 h; Tmax [1, 11]: 3 h; Cmax [1, 12]: 0.00531 ± 0.00161 µg/mL |
| linear pharmacokinetic process | COc1cc(O)c2c(c1)oc(=O)c1c3cc(O)c(O)cc3oc21 [Wedelolactone] |  |  | 0.006 ± 0 | 0.07 ± 0.01 | 0.003 ± 0.001 | 0.04 ± 0 | 0.003 ± 0 | 0.03 ± 0.01 | 0.139 ± 0.0456 | 0.11 ± 0.0247 | 10.7 ± 3.69 | 7.52 ± 0.34 | 14 ± 3.66 | 2 | 0.0186 ± 0.00398 | 0.276 ± 0.0356 | 0.242 ± 0.0324 | 8.01 ± 1.33 | 8.23 ± 0.18 | MRT inf [1, 7]: 11.6 ± 1.32 h; Tmax [1, 8]: 3.67 ± 0.58 h; Cmax [1, 9]: 0.0278 ± 0.00235 µg/mL; AUC(0-inf) [1, 10]: 0.262 ± 0.0135 µg·h/mL; AUC(0-t) [1, 10]: 0.221 ± 0.0172 µg·h/mL; half-life [1, 10]: 8.2 ± 0.63 h; MRT last [1, 10]: 7.5 ± 0.21 h; MRT inf [1, 10]: 12 ± 1.32 h; Tmax [1, 11]: 1.83 ± 0.29 h; Cmax [1, 12]: 0.0354 ± 0.00229 µg/mL; MRT(0–t), PF model group compared with the control group ([2]; PF model vs control rats): decreased |

| SMILES | pharmacokinetic process (versus dosage) [2] | Tmax, PF model group compared with the control group ([2]; PF model vs control rats) | Tmax [2] [h] | Clearances ([1]; JHGs high dose 22.81 g/kg/d) [L/h/kg] | Vss ([1]; JHGs high dose 22.81 g/kg/d) [L] | Clearances ([1]; JHGs low dose 5.70 g/kg/d) [L/h/kg] | Vss ([1]; JHGs low dose 5.70 g/kg/d) [L] | Clearances ([1]; JHGs medium dose 11.41 g/kg/d) [L/h/kg] | Vss ([1]; JHGs medium dose 11.41 g/kg/d) [L] | AUC(0-inf) [1, 4] [µg·h/mL] | AUC(0-t) [1, 4] [µg·h/mL] | half-life [1, 4] [h] | MRT last [1, 4] [h] | MRT inf [1, 4] [h] | Tmax [1, 5] [h] | Cmax [1, 6] [µg/mL] | AUC(0-inf) [1, 7] [µg·h/mL] | AUC(0-t) [1, 7] [µg·h/mL] | half-life [1, 7] [h] | MRT last [1, 7] [h] | further results |
| --- | --- | --- | --- | --- | --- | --- | --- | --- | --- | --- | --- | --- | --- | --- | --- | --- | --- | --- | --- | --- | --- |
| C[C@@H]1O[C@@H](OC[C@H]2O[C@@H](Oc3c(-c4ccc(O)c(O)c4)oc4cc(O)cc(O)c4c3=O)[C@H](O)[C@@H](O)[C@@H]2O)[C@H](O)[C@H](O)[C@H]1O [Rutin] | linear pharmacokinetic process |  | ≤ 2 |  |  |  |  |  |  |  |  |  |  |  |  |  |  |  |  |  | correlation between CL, AUCs (AUC(0–t), AUC (0–∞)), t½, and dose [1]: no correlation; Tmax ([1]; Sprague-Dawley, after administration of JHGs, read-out: Tmax of all dosages): ≤ 2 h |
